Reference: patent publication US8466170B2, “7-azaindole derivatives” (Merck Patent GmbH, priority 2008, dated 2013)

Assays:
Type in all cases: biochemical
[1] = biological target: T1, SGK1 (Homo sapiens, UniProt O00141); assay: SGK1 enzyme inhibition (filter binding method); details: Target SGK1
T1 sequence (O00141 1-431): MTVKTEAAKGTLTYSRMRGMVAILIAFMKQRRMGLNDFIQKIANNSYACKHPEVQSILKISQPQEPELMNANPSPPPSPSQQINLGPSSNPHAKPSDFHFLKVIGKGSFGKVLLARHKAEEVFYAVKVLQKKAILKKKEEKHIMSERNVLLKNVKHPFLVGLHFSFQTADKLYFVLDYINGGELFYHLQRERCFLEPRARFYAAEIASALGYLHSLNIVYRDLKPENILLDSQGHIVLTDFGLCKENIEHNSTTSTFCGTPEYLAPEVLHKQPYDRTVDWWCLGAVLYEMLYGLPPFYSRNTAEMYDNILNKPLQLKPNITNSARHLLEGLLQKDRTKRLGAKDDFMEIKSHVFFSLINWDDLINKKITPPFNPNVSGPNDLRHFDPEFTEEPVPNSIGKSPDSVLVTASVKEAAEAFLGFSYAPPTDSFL
Excerpt: The inhibition of SGK1 protein kinase can be determined in the filter binding method.

[2] = biological target: GSK3-beta (Homo sapiens, UniProt P49841); assay: Measurement of the GSK3-beta activity; details: Target GSK3-beta; read-out: Inhibition IC50 (enzyme)
Description: The GSK3-beta activity can be measured analogously to WO 2008/078196. GSK3b (5-20 mU diluted in 20 mM MOPS ph 7.5, 1 mM EDTA, […], 0.01% Brj35, 5% glycerol, 0.1% beta-mercaptoethanol, 1 mg/ml of BSA) is measured against phospho-GS2 peptide ([…](PO4)EDEEE) in a final volume of 25.5 μl containing 8 mM MOPS ph 7.0, 0.2 mM EDTA, 20 μM phospho GS2 peptide, 10 mM magnesium acetate and 0.005 mM [33P-g-ATP] (50-1000 cpm/pmol) and is incubated at room temperature for 30 minutes. The assay is stopped by addition of 5 μl of 0.5 M (3%) orthophosphoric acid and is then harvested on P81 unifilter plates with a wash buffer (50 mM orthophosphoric acid).

[3] = biological target: CHK2 (Homo sapiens, UniProt O96017); assay: CHK2 enzyme inhibition; details: Target CHK2
[4] = biological target: AMPK; assay: AMPK enzyme inhibition; details: Target AMPK
[5] = biological target: T2, SAPK3 (Homo sapiens, UniProt P53778); assay: SAPK3 enzyme inhibition; details: Target SAPK3
T2 sequence (P53778 1-367): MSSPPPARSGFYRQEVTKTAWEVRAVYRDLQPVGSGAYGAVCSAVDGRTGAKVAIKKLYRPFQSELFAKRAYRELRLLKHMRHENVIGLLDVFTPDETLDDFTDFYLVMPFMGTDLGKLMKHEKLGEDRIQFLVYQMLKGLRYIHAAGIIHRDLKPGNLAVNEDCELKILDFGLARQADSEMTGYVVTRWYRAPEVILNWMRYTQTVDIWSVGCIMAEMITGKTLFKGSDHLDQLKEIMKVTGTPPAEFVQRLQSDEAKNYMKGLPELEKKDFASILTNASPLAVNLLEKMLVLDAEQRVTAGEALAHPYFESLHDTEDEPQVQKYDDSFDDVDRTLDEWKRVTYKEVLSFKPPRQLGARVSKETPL

[6] = biological target: MKK1 (Homo sapiens, UniProt Q02750); assay: MKK1 enzyme inhibition; details: Target MKK1
[7] = biological target: T3, Met kinase (Homo sapiens, UniProt P08581); assay: Met kinase flashplate method; details: Target Met kinase; read-out: Inhibition IC50 (enzyme)
T3 construct: 6His (N); purchased Upstate 14-526; host or cells: Sf21 insect cells (S. frugiperda), baculovirus
Excerpt: According to the manufacturer's data (Met, active, Upstate, catalogue No. 14-526), Met kinase is expressed for the purposes of protein production in insect cells (Sf21; S. frugiperda) and subsequent affinity-chromatographic purification as “N-terminal 6His-tagged” recombinant human protein in a baculovirus expression vector.
The kinase activity can be measured using various available measurement systems. In the scintillation proximity method (Sorg et al., J. of Biomolecular Screening, 2002, 7, 11-19), the flashplate method or the filter binding test, the radioactive phosphorylation of a protein or peptide as substrate is measured using radioactively labelled ATP (^32P-ATP, ^33P-ATP). In the case of the presence of an inhibitory compound, a reduced radioactive signal, or none at all, can be detected. Furthermore, homogeneous time-resolved fluorescence resonance energy transfer (HTR-FRET) and fluoroescence polarisation (FP) technologies can be used as assay methods (Sills et al., J. of Biomolecular Screening, 2002, 191-214).
The test plates used are 96-well Flashplate^R microtitre plates from Perkin Elmer (Cat. No. SMP200). […] The measurement of the bound radioactivity is carried out by means of a scintillation measuring instrument (Topcount NXT, Perkin-Elmer).
The full value used is the inhibitor-free kinase reaction. […] The inhibitory values (IC50) are determined using the RS1_MTS program. […]

T3 sequence (P08581 974-1390 limits assumed): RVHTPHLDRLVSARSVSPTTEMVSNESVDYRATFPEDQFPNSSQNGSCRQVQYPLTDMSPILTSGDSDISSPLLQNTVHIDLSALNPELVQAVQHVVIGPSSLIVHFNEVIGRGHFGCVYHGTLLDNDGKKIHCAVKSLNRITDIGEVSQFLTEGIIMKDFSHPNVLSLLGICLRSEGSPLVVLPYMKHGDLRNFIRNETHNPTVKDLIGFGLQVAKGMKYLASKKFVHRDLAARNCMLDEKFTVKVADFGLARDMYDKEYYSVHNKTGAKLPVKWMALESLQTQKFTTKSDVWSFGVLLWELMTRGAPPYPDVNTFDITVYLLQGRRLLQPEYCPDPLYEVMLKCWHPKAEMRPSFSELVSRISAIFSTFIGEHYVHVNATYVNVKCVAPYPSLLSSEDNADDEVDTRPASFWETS
Sequence of MKK1 (Q02750 whole entry, species assumed): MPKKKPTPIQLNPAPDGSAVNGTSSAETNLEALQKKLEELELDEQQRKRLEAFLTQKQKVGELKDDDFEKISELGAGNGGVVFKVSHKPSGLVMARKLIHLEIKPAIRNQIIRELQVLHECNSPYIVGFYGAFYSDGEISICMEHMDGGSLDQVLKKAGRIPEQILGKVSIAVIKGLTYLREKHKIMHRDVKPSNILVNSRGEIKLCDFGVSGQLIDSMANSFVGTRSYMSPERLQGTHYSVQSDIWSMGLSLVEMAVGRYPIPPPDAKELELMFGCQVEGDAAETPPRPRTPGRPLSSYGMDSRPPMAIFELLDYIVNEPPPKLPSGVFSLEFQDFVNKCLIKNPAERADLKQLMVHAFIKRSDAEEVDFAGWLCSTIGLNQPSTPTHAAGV
Sequence of GSK3-beta (P49841 whole entry, species assumed): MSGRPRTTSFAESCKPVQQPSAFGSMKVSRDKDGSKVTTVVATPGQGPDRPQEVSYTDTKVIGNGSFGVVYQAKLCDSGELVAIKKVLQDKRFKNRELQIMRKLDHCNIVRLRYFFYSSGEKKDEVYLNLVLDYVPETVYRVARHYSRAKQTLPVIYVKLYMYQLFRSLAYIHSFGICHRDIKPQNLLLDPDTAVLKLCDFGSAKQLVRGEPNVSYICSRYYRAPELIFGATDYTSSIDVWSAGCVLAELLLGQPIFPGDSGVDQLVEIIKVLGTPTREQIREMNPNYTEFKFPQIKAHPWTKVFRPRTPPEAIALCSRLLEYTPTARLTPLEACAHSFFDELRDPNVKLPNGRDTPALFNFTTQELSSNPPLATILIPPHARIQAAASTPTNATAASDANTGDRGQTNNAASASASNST
Sequence of CHK2 (O96017 whole entry, species assumed): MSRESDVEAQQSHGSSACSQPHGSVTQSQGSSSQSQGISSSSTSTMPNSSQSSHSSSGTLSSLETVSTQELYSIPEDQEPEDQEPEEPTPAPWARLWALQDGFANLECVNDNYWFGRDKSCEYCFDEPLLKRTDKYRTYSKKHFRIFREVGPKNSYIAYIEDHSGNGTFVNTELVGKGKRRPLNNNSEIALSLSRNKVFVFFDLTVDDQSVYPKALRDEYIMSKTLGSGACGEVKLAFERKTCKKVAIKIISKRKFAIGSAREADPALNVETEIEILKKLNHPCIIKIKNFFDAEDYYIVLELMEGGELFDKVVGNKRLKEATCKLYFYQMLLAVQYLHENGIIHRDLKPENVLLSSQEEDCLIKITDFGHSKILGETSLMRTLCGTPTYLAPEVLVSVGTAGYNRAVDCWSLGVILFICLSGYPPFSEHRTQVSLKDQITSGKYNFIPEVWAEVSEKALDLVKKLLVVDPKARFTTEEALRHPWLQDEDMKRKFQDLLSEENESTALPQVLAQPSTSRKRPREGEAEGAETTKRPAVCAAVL

## Nc1nnc(-c2c[nH]c3ncccc23)o1 [Compound A3, 5-(1H-pyrrolo[2,3-b]pyridin-3-yl)-1,3,4-oxadiazol-2-ylamine]
[1]
  IC50: 100 to 10000 nM

## COc1cccc(CNc2nnc(-c3c[nH]c4ncccc34)o2)c1 [Compound A1, (3-methoxybenzyl)-[5-(1H-pyrrolo[2,3-b]pyridin-3-yl)-1,3,4-oxadiazol-2-yl]amine]
[1]
  IC50: 1 to 100 nM
[2]
  IC50: 1 to 100 nM
[3]
  IC50: 1 to 100 nM
[4]
  IC50: 1 to 100 nM
[5]
  IC50: 0.1 to 10 µM
[6]
  IC50: 1 to 100 nM

## COc1cccc(CNc2nnc(-c3c[nH]c4ncc(Br)cc34)o2)c1 [Compound A4]
[7]
  IC50: 0.1 to 10 µM
[1]
  IC50: 1 to 100 nM

## Fc1cccc(CNc2nnc(-c3c[nH]c4ncccc34)o2)c1 [Compound A5]
[7]
  IC50: 0.1 to 10 µM
[1]
  IC50: 1 to 100 nM

## c1ccc(Nc2nnc(-c3c[nH]c4ncccc34)o2)cc1 [Compound A2, phenyl-[5-(1H-pyrrolo[2,3-b]pyridin-3-yl)-1,3,4-oxadiazol-2-yl]amine]
[1]
  IC50: 100 to 10000 nM

## COc1cccc(CNc2nnc(-c3c[nH]c4ncc(-c5cn[nH]c5)cc34)o2)c1 [Compound A6]
[1]
  IC50: 100 to 10000 nM

## COc1cccc(CNc2nnc(-c3c[nH]c4ncccc34)n2Cc2ccccc2)c1 [Compound A9, [4-benzyl-5-(1H-pyrrolo[2,3-b]pyridin-3-yl)-4H-1,2,4-triazol-3-yl]-(3-methoxybenzyl)amine]
[1]
  IC50: 100 to 10000 nM

## COc1cccc(CNc2nnc(-c3c[nH]c4ncccc34)n2N)c1 [Compound A10, N*3*-(3-methoxybenzyl)-5-(1H-pyrrolo[2,3-b]pyridin-3-yl)-1,2,4-triazole-3,4-diamine]
[1]
  IC50: 100 to 10000 nM
